Experimental data published in patent US4889917A, “Peptide” (Agency of Industrial Science Technology, Ministry of …, priority 1987, dated 1989).

Tested on: human antibody to the nicotinic acetylcholine receptor
Assay: Adsorption of human anti-nicotinic acetylcholine receptor antibody from myasthenia gravis patient serum; residual antibody in supernatant by Con A method (toxin binding inhibition)
Procedure: In 0.5 ml of serum from a patient of myasthenia gravis, 50 mg of the adsorbent obtained in Referential Example 3(a) (cellulose particles having the peptide immobilized thereon) and not yet subjected to any heat treatment or the adsorbent obtained in Referential Example 3(b) and subjected to a heat treatment was suspended at a temperature of 37° C. for three hours. The resultant suspension was centrifuged to separate a supernatant. The supernatant was tested for the concentration of the human antibody to the nicotinic acetylcholine receptor by the Con A method [Protein, Nucleic Acid and Enzyme, vol. […] To be specific, the specimen was brought into contact sequentially with the nicotinic acetylcholine receptor and a radioisotope-labelled α-bungartoxin. The treated specimen was passed through a column packed with Sepharose having immobilized thereon concanavalin (Con A). By measuring the radioactivity of the column, the amount of the human antibody which was contained in the specimen and which inhibited the union of the α-bungarotoxin with the nicotinic acetylcholine receptor was determined in terms of toxin binding inhibition activity (ratio of decrease of the radioactivity of the column).

Compound: NCC(=O)O [Glycine, glycine]
- Toxine binding inhibition activity (as E1, adsorbent heat treated at 121° C. for 20 minutes): 45%
- Toxine binding inhibition activity (supernatant of 0.5 ml myasthenia gravis serum after 50 mg adsorbent (substance immobilized on cellulose particles), 37° C., three hours, no heat treatment, lower = more antibody adsorbed): 44%
